Experimental data as given in US10016354B2, “Compositions containing polymeric, ionic compounds comprising imidazolium groups” (BASF SE, priority 2011, dated 2018).
In brackets after ≈: the same amount, converted by molar mass.

Experiments:
[1] = test system: Pseudomonas aeruginosa ATCC 27853; assay: Minimum Inhibitory Concentration (MIC) test; type: cell-based; details: Table 3, known antibiotics as control; 24 h at 37° C.
[2] = test system: Staphylococcus aureus ATCC 29213; assay: Minimum Inhibitory Concentration (MIC) test; type: cell-based; details: Table 3, known antibiotics as control; 24 h at 37° C.

For `CC1=C(C(=O)O)N2C(=O)[C@@H](NC(=O)[C@H](N)c3ccccc3)[C@H]2SC1` [Cephalexine], the “MIC Pseudomonas aeruginosa ATCC 27853 = DSM 1117” value [1] was >4096 µg/mL and the “MIC Staphylococcus aureus ATCC 29213 = DSM 2569” value [2] was 4 µg/mL (≈ 0.0115 mM).
